# Test system: facial skin
# Assay: Cutometer measurement of extensibility of the skin, 12 week clinical study
# Format: in vivo, human
# Conditions: for Cutometer Extensibility Mean: Baseline mean 1.15
# Description: A single cutometer measurement was taken on the right side of the subject's face, in line with the corner of the eye and the edge of the nostril, to measure the extensibility of the skin. All clinical and corneometer measurements and evaluations were taken at baseline, week 1 (visit 2), week 4 (visit 3), week 8 (visit 4) and week 12 (visit 5). Ultrasound and cutometer measurements and evaluations were taken at baseline, week 4 (visit 3), week 8 (visit 4) and week 12 (visit 5). Completed patient's diaries were reviewed for compliance at each visit. Mean clinical grading and instrumentation scores at each visit were statistically compared to baseline scores using paired t-test. Changes from baseline were considered significant at the p≦0.05 level. Mean percent change from baseline and incidence of positive responders were calculated for all attributes. Comparisons, based on the average from baseline, were made between the test materials using analysis of variance (ANOVA).
structure (smiles),measurement,setting,value
"OCc1ccccc1O[C@@H]1O[C@H](CO)[C@@H](O)[C@H](O)[C@H]1O [Salicin, 2-(Hydroxymethyl)phenyl β-D-glucospyranoside]",Cutometer Extensibility Mean,Week 4,1.17
same,Cutometer Extensibility % Change,Week 4 vs Baseline,(1.8%)
same,Cutometer Extensibility Mean,Week 8,1.17
same,Cutometer Extensibility % Change,Week 8 vs Baseline,(1.3%)
same,Cutometer Extensibility Mean,Week 12,1.26
same,Cutometer Extensibility % Change,Week 12 vs Baseline,(9.6%)
